# In BindingDB's records for PubMed 7562497 (R. W. Johnson Pharmaceutical Research Institute, 1995):
# Values joined by “and” are separate entries in the source; they are usually repeats but may differ in a detail not shown here. Identical values can stand only once.
# Tests used:
# [1] = biological target: Sodium-dependent serotonin transporter (Rattus norvegicus, UniProt P31652)
# [2] = biological target: Mu-type opioid receptor (Rattus norvegicus, UniProt P33535)
# [3] = biological target: Norepinephrine transporter (Rattus norvegicus, UniProt Q9JIA2)
# [4] = biological target: Kappa-type opioid receptor (Rattus norvegicus, UniProt P34975)
# Kappa-type opioid receptor, sequence (P34975 whole entry): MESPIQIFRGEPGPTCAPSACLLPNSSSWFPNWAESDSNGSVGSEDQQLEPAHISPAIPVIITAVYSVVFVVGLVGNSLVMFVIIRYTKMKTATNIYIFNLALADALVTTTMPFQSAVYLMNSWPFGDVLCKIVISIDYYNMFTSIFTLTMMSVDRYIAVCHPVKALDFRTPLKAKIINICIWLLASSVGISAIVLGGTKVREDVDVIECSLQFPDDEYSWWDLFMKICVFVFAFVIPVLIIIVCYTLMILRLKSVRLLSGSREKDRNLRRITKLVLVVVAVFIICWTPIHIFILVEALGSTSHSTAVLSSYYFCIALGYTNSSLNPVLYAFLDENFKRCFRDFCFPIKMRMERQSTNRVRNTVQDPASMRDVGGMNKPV
# Mu-type opioid receptor, sequence (P33535 whole entry): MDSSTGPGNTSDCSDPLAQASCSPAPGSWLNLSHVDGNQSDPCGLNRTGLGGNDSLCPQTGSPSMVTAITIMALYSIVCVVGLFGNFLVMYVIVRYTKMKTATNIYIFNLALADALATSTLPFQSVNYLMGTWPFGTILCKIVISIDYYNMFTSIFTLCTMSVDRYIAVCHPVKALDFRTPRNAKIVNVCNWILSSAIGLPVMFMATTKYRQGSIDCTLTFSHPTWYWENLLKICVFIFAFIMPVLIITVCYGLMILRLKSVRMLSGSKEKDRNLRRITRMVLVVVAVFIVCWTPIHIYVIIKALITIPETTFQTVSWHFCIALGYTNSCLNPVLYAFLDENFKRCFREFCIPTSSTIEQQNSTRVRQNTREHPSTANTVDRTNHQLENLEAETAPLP
# Sodium-dependent serotonin transporter, sequence (P31652 whole entry): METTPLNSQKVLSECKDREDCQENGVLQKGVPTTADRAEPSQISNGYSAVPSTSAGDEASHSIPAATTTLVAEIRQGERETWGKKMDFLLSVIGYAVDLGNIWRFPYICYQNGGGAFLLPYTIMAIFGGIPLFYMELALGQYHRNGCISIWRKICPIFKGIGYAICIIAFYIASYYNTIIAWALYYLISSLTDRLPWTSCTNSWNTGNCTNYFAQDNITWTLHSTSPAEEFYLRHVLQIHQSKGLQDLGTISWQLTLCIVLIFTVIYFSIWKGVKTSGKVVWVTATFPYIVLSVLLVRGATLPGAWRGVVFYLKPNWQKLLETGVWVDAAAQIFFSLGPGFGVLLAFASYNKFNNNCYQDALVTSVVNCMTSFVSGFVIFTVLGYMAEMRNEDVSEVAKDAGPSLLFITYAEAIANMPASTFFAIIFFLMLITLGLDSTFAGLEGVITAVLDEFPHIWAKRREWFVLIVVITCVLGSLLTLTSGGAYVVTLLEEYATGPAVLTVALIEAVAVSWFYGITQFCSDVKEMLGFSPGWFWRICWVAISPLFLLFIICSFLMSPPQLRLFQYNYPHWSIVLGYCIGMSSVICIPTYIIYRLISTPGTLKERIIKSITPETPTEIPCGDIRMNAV
SMILES,Ki [1],Ki [2],Ki [3],Ki [4] [µM]
CCC(=O)O[C@](Cc1ccccc1)(c1ccccc1)[C@H](C)CN(C)C [PROPOXYPHENE],> 10 µM,0.0345 µM,> 10 µM,1.22
"C=CCN1CC[C@]23c4c5ccc(O)c4O[C@H]2C(=O)CC[C@@]3(O)[C@H]1C5 [[17-(2,3-3H-2-propenyl)]-4,5a-epoxy-3,14-dihydroxymorphinan-6-one]",> 10 µM,,> 10 µM,
CO[C@@]12CC[C@@]3(C[C@@H]1[C@@](C)(O)C(C)(C)C)[C@H]1Cc4ccc(O)c5c4[C@@]3(CCN1CC1CC1)[C@H]2O5 [BUPRENORPHINE],> 10 µM,,> 10 µM,
COc1ccc2c(c1)C13CCCCC1C(C2)N(C)CC3 (stereo not drawn) [Levomethorpan],,,0.24 µM and 0.179 µM,
COc1ccc2c3c1OC1C(O[Si](C)(C)C)C=CC4C(C2)N(C)CCC341 (stereo not drawn) [CAS_553916],> 10 µM,0.0111 µM,> 10 µM,0.501
COc1ccc2c3c1OC1C(O)C=CC4C(C2)N(C)CCC341 (stereo not drawn) [NSC_223652],> 10 µM,,> 10 µM,
"C[C@@H](NC(=O)[C@@H](N)Cc1ccc(O)cc1)C(=O)NCC(=O)N(C)[C@@H](Cc1ccccc1)C(=O)NCCO [[tyrosyl-3,5-3H(N)]-D-Ala2-Mephe4-glyol5-enkephalin]",> 10 µM,,> 10 µM,0.21
"CC1(C)SSC(C)(C)[C@@H](NC(=O)[C@@H](N)Cc2ccc(O)cc2)C(=O)NCC(=O)N[C@@H](Cc2ccccc2)C(=O)N[C@H]1C(=O)O [(4S,7S,13S)-13-[(2S)-2-amino-3-(4-hydroxyphenyl)propanamido]-7-benzyl-3,3,14,14-tetramethyl-6,9,12-trioxo-1,2-dithia-5,8,11-triazacyclotetradecane-4-carboxylic acid]",> 10 µM,,> 10 µM,> 10
"CN1CCC23CCCCC2C1Cc1ccc(O)cc13 (stereo not drawn) [17-methyl-17-azatetracyclo[7.5.3.0^{1,10}.0^{2,7}]heptadeca-2(7),3,5-trien-4-ol]",0.401 µM and 0.0863 µM,,0.34 µM and 1.21 µM,
"O=C1CC[C@@]2(O)[C@H]3Cc4ccc(O)c5c4[C@@]2(CCN3CC2CC2)[C@H]1O5 [(1S,5R,13R,17S)-4-(cyclopropylmethyl)-10,17-dihydroxy-12-oxa-4-azapentacyclo[9.6.1.0^{1,13}.0^{5,17}.0^{7,18}]octadeca-7(18),8,10-trien-14-one]",> 10 µM,,> 10 µM,
C=CCN1CC[C@]23CCCCC2[C@H]1Cc1ccc(O)cc13 (stereo partly drawn) [Levallorphan],> 10 µM and 7.95 µM,,,
COc1ccc2c3c1O[C@H]1C(=O)CCC4(O)[C@@H](C2)N(C)CC[C@]314 (stereo partly drawn) [Oxycodone],> 10 µM,,> 10 µM,
c1cc2c(c(NC3=NCCN3)c1)CCCC2 [NSC_19472],0.992 µM and 0.528 µM and 2.35 µM,2.12 µM and 1.33 µM and > 10 µM,0.785 µM and 2.51 µM and 0.432 µM,> 10
CCC(OC(C)=O)C(CC(C)N(C)C)(c1ccccc1)c1ccccc1 (stereo not drawn),,,> 10 µM,
